Experimental findings from ChEMBL document CHEMBL1134876, “Sequence selective recognition of DNA by hairpin conjugates of a racemic seco-cyclopropaneindoline-2-benzofurancarboxamide and polyamides” (Bioorg Med Chem Lett, 2002) are described below.

SMILES strings stand for the structures.

The subject of one test is L1210. As to the kind of experiment: Cytotoxicity tested against L1210 (murine leukemia) cell line using MTT assay. It is filed as functional, cell-based. The following applies: Mus musculus.
In the next test the test system is P815. As to the kind of experiment: Cytotoxicity tested against P815 (murine mastocytoma) cell line using MTT assay. It is filed as functional, cell-based. The settings on record: Mus musculus. For orientation: Tetrazolium dyes change colour on reduction, which living cells bring about.

As to `NCCCCNC(=O)c1nc(NC(=O)c2cc(NC(=O)CCCC(=O)Nc3ccc4oc(C(=O)N5CC(CCl)c6ccc(O)cc65)cc4c3)c[nH]2)c[nH]1` (stereo not drawn), the IC50 – broadly, the concentration needed to halve the response being measured – stood at 6.7 µM in the test on L1210 and 9.1 µM with P815.

`NCCCCNC(=O)c1nc(NC(=O)c2nc(NC(=O)CCCC(=O)Nc3ccc4oc(C(=O)N5CC(CCl)c6ccc(O)cc65)cc4c3)c[nH]2)c[nH]1` (stereo not drawn): the IC50 in the test on L1210 came out at 6.8 µM; with P815, 52 µM.

Consider `NCCCCNC(=O)c1cc(NC(=O)c2nc(NC(=O)CCCC(=O)Nc3ccc4oc(C(=O)N5CC(CCl)c6ccc(O)cc65)cc4c3)c[nH]2)c[nH]1` (stereo not drawn), for which the IC50 in the test on L1210 came to 45 µM; in the test with P815 it was 77 µM.

As for `NCCCCNC(=O)c1cc(NC(=O)c2cc(NC(=O)CCCC(=O)Nc3ccc4oc(C(=O)N5CC(CCl)c6ccc(O)cc65)cc4c3)c[nH]2)c[nH]1` (stereo not drawn), the values for the half-maximal inhibitory concentration (IC50) with L1210 and in the test on P815 were 28 µM and 41 µM, respectively.
